Reference: patent US20140323581A1, “TRANSCRIPTOME WIRING ANALYSIS IN PARKINSON'S DISEASE AND USES THEREOF” (THE TRUSTEES OF COLUMBIA UNIVERSITY IN THE CITY OF NEW YORK, priority 2011, published 2014)
“Also recorded” adds a separate entry of the source. Where two headings read alike, the source gives them in different places.

Columns and labels:
[1] = tested on: aSyn translation; experiment: Endogenous aSyn protein by ELISA normalized to total aSyn mRNA in SH-SY5Y cells (aSyn translation); format: cell-based, human; conditions: dopamine 100 uM for 24 h
Source text: Mitochondria were purified using Qproteome Mitochondria Isolation Kit (Qiagen) and membrane fractions were isolated using Subcellular Protein Fractionation Kit (Pierce) following manufacturers' instructions. […] Absorbance was read on a VersaMax ELISA Microplate Reader (Molecular Devices, Inc) at 450 nm. The amount of human aSyn was normalized to total cellular protein as determined with the DC Protein Assay Reagent kit (Bio-Rad). Mitochondrial preparations were validated by Western blot analysis for Tom20 and synaptophysin (see FIG. 12d). RT-qPCR analyses were performed as described ^60. […] NO: 17 and […] NO: 18) […] NO: 19, […] NO: 20) were used. The human SH-SY5Y neuroblastoma cell line (ATCC) was cultured following the distributor's instructions. Cells were plated at a density of 4×10^5 cells per well (in 48-well plates) in wells coated with 0.1% gelatin (Specialty Media, Millipore) 24 hours prior to transfection. Transfections were performed with Lipofectamine 2000 reagent (Invitrogen) following the manufacturer's instructions. The human HEK-293T cell line (ATCC) was cultured in DMEM (Invitrogen) supplemented with 10% FBS (Invitrogen). Cells were plated at a density of 8×10^3 cells per well (96-well plates). […] Luciferase and Renilla activities were measured 24 h or 48 h after transfection using Dual-Glo luciferase assay system (Promega).

[2] = tested on: aSynL:total ratio; experiment: In situ hybridization for aSyn CDS and long 3′UTR in primary cortical neuron cultures from aSyn PAC transgenic mice; format: cell-based; conditions: 100 μM for 24 h, DIV 4 PAC mouse cortical neurons
Protocol: (§1) Cultures of rodent neurons were prepared as described in ^53. Cells were maintained in vitro for 3-5 days before drug treatments or transfection using Lipofectamine 2000 (Iinvitrogen) following manufacturer's instructions.
In situ hybridization were performed using QuantiGene® ViewRNA ISH Cell Assay (Panomics) following manufacturer's instructions, with QG ViewRNA TYPE 8 Probe Sets (Panomics) designed to target either human aSyn CDS sequences (bases 264-634 from NM_000345.3; Panomics) or to target human aSynL 3′UTR sequences (bases 1180-1760 from NM_000345.3).

[3] = tested on: aSynL:total ratio
Protocol: Total RNA was isolated using a miRNeasy kit (Qiagen) and nascent RNA was purified using the Click-iT® Nascent RNA Capture Kit (Invitrogen) following manufacturer's instructions; total and nascent RNA were then subjected to RT-qPCR analysis as below.
RT-qPCR analyses were performed as described ^60.

[4] = tested on: human aSyn 3′UTR; experiment: Firefly luciferase-aSyn 3′UTR reporter assay in SH-SY5Y cells; format: cell-based; conditions: for dopamine-mediated increase in luciferase accumulation under VMAT2 overexpression: SH-SY5Y co-transfected with VMAT2 vector; for luciferase expression, Firefly/Renilla ratio, short aSyn 3′UTR vector: 100 μM for 24 hrs
Protocol: The human SH-SY5Y neuroblastoma cell line (ATCC) was cultured following the distributor's instructions. Cells were plated at a density of 4×10^5 cells per well (in 48-well plates) in wells coated with 0.1% gelatin (Specialty Media, Millipore) 24 hours prior to transfection. Transfections were performed with Lipofectamine 2000 reagent (Invitrogen) following the manufacturer's instructions. The human HEK-293T cell line (ATCC) was cultured in DMEM (Invitrogen) supplemented with 10% FBS (Invitrogen). Cells were plated at a density of 8×10^3 cells per well (96-well plates). Mir-34b-3p precursor, specific Anti-miR Mir-34b-3p inhibitor, Anti-miR Negative Control #1, and Pre-miR Negative Control #1 were purchased from Ambion. Cells were co-transfected with luciferase reporter plasmids and a small RNA or inhibitor (as indicated) using siPort NeoFx reagent (Ambion) following manufacturer's protocol. Luciferase and Renilla activities were measured 24 h or 48 h after transfection using Dual-Glo luciferase assay system (Promega).

[5] = tested on: aSyn protein; experiment: Total endogenous aSyn protein by ELISA in SH-SY5Y cells; format: cell-based, human; conditions: 100 μM for 48 h
Protocol: (§2) Mitochondria were purified using Qproteome Mitochondria Isolation Kit (Qiagen) and membrane fractions were isolated using Subcellular Protein Fractionation Kit (Pierce) following manufacturers' instructions. Human aSyn protein levels were determined using the aSyn Human ELISA kit (Invitrogen). Absorbance was read on a VersaMax ELISA Microplate Reader (Molecular Devices, Inc) at 450 nm. The amount of human aSyn was normalized to total cellular protein as determined with the DC Protein Assay Reagent kit (Bio-Rad). Mitochondrial preparations were validated by Western blot analysis for Tom20 and synaptophysin (see FIG. 12d).

[6] = tested on: aSyn protein; experiment: Colocalization of aSyn and Mitotracker in primary cortical neuron cultures from PAC transgenic mice; format: cell-based; conditions: primary mouse cortical neurons, 100 μM for 24 h
Protocol: as §1
Immunostainings were done as previously described ^59 with Rabbit anti-aSyn (Santa Cruz, 1:200) or Mouse anti-Synaptophysin (Millipore, 1:100) as primary antibodies, and Alexa 555 goat anti-rabbit IgG or Alexa 633 goat anti-mouse IgG (Invitrogen) secondary antibodies. MitoTracker-Orange (Invitrogen, 1:10000) was added into media for 15-20 min in living cell culture. Collocalization analyses were done in R using EBImage package; using Pearson's correlation coefficient.

[7] = tested on: aSynL:total ratio; experiment: aSynL:total ratio by RT-qPCR in rat primary cortical cultures; format: cell-based
Protocol: as §1
RT-qPCR analyses were performed as described ^60. The human aSynL:Total mRNA ratio was quantified in terms of AACt ^60 using primer pair Lh for the human long form (HaSynLfw [[…]] SEQ ID NO: 13, and HaSynLry [[…]]) SEQ ID NO: 14 and primer pair Th for human total (HaSynTfw [[…]] SEQ ID NO: 15 and HaSynTrv [[…]] SEQ ID NO: 16). For analysis of either mouse or rat, primer pairs mrL (RaSynLfw [[…]] SEQ ID NO: 17 and RaSynLrv [[…]] SEQ ID NO: 18) and mrT (RaSynTfw [[…]] SEQ ID NO: 19, RaSynTry [[…]] SEQ ID NO: 20) were used.

[8] = tested on: aSynL:total ratio; conditions: GFP-aSyn wild-type 1.1 kb 3′UTR plasmid, lysed after 48 h
Protocol: Northern Blots were performed using the NorthernMax kit (Ambion) following manufacturer's instructions. 10 μg of total RNA was purified using miRNeasy kit (Qiagen) and loaded per lane.

[9] = tested on: aSyn protein; experiment: aSyn protein by ELISA in mitochondrial and membrane fractions of SH-SY5Y cells; format: cell-based, human; conditions: 100 μM for 48 h
Protocol: as §2

[10] = tested on: aSynL:total ratio; experiment: aSynL:total ratio in total RNA of SH-SY5Y cells by RT-qPCR (transcription inhibition); format: cell-based, human; conditions: SH-SY5Y, dopamine 100 μM, 24 h, no actinomycin D

Question: Which “aSyn translation: endogenous aSyn protein (ELISA) normalized to total aSyn mRNA” value [1] does the source give for `NCCc1ccc(O)c(O)c1` [dopamine] here?
Answer: Its value is “significant increase”.

Question: And the “aSynL:total ratio (ratio of in situ hybridization signals)” value [2]?
Answer: Its value is “increase”.

Question: What about the “aSynL:total ratio among the labeled RNA population” value ([3]; 100 μM dopamine exclusively during the pulse-labeling period) of the same compound?
Answer: Its value is “robust and durable increase”.

Question: And the “aSynL:total ratio among the labeled RNA population” value ([3]; 100 μM dopamine exclusively post-labeling (chase))?
Answer: The value was “did not produce any effect”.

Question: And the “treatment time after which the increase of the aSynL:total ratio is detectable in the nascent RNA population” value ([3]; SH-SY5Y, dopamine)?
Answer: The value was no more than 4 h.

Question: What about the “treatment time for the dopamine effect on aSynL:total ratio to become detectable in the total RNA population” value ([3]; SH-SY5Y, dopamine) of the same compound?
Answer: Its value is “at least 16 hrs”.

Question: And the “increase in aSynL:total ratio in nascent RNA” value ([3]; dopamine 100 μM with EU for 4 h, captured EU-labeled RNA)?
Answer: The value was “robustly observed”.

Question: And the “increase in aSynL:total ratio in total RNA” value ([3]; dopamine 100 μM with EU for 4 h, total RNA)?
Answer: Its value is “not in total RNA”.

Question: What about the “dopamine-mediated increase in luciferase accumulation under VMAT2 overexpression” value ([4]; dopamine 100 μM for 48 h) of the same compound?
Answer: Its value is “suppressed”.

Question: And the “dopamine-mediated increase in luciferase accumulation under VMAT2 overexpression” value ([4]; dopamine 100 μM for 48 h, listed as Dopamine)?
Answer: Its value is “cancelled”.

Question: What about the “luciferase expression, Firefly/Renilla ratio, 1.1 kb human aSyn 3′UTR vector” value ([4]; SH-SY5Y, 100 μM for 24 h) of the same compound?
Answer: The value was “increased”.

Question: What about the “luciferase expression, Firefly/Renilla ratio, short aSyn 3′UTR vector” value ([4]; SH-SY5Y) of the same compound?
Answer: Its value is “not observed”.

Question: What about the “luciferase expression, Firefly/Renilla ratio, short aSyn 3′UTR vector” value ([4]; SH-SY5Y, listed as Dopamine) of the same compound?
Answer: The value was “do not influence”.

Question: What about the “aSyn 3′UTR mediated translation (luciferase)” value ([4]; SH-SY5Y, vector control, dopamine 100 μM for 48 h) of the same compound?
Answer: Its value is “potentiates”.

Question: What about the “endogenous aSyn protein levels (ELISA, normalized to total protein)” value [5] of the same compound?
Answer: Its value is “significantly increased”.

Question: And the “fraction of aSyn protein that colocalized with mitochondria (Mitotracker)” value [6]?
Answer: The value was “significantly increased”.

Question: What about the “aSynL:total ratio” value ([7]; dopamine 10 μM for 24 hrs, cells transfected with vector encoding DAT) of the same compound?
Answer: The value was “significantly increased the sensitivity”.

Question: What about the “aSynL:total ratio” value ([7]; low extracellular dopamine 10 μM for 24 h, no DAT overexpression) of the same compound?
Answer: Its value is “resistant”.

Question: What about the “aSynL:total ratio” value ([7]; rat primary cortical neurons, RT-qPCR, dopamine, picrotoxin, muscimol, NMDA 100 μM, kainic acid 50 μM, vs vehicle) of the same compound?
Answer: Its value is “increase; also recorded: significantly increased”.

Question: And the “aSynL (1070 nt 3′UTR) transcript relative to shorter (300 nt 3′UTR) transcript, Northern blot” value [8]?
Answer: Its value is “increase”.

Question: And the “aSyn content within total cell membrane fraction relative to whole cell lysate (ELISA)” value [9]?
Answer: Its value is “decreased; also recorded: reduction”.

Question: What about the “aSyn protein content in mitochondrial preparations relative to whole cell aSyn content (ELISA)” value [9] of the same compound?
Answer: Its value is “increased proportion; also recorded: preferentially increased”.

Question: What about the “aSynL:total ratio in total RNA” value [10] of the same compound?
Answer: The value was “increase”.
